{"source": "ChEMBL document CHEMBL5625222", "about": "“Design, synthesis, and biological evaluation of 1,6-naphthyridine-2-one derivatives as novel FGFR4 inhibitors for the treatment of colorectal cancer” (Eur J Med Chem, 2023)", "key": {"[1]": {"assay": "Drug uptake in BALB/c mouse colon at 20 mg/kg,ip administrated for 2 hrs by LC-MS analysis", "type": "ADME, organism-based", "details": "in vivo"}, "SW480 [2]": {"system": "SW480", "assay": "Anti-migration activity in human SW480 cells assessed as change in FAK expression at 3 to 12 uM by Western blotting analysis", "type": "functional, cell-based", "details": "dose 3-12 µM"}, "[3]": {"target": "Fibroblast growth factor receptor 2 (Homo sapiens, UniProt P21802)", "sequence (P21802 whole entry)": "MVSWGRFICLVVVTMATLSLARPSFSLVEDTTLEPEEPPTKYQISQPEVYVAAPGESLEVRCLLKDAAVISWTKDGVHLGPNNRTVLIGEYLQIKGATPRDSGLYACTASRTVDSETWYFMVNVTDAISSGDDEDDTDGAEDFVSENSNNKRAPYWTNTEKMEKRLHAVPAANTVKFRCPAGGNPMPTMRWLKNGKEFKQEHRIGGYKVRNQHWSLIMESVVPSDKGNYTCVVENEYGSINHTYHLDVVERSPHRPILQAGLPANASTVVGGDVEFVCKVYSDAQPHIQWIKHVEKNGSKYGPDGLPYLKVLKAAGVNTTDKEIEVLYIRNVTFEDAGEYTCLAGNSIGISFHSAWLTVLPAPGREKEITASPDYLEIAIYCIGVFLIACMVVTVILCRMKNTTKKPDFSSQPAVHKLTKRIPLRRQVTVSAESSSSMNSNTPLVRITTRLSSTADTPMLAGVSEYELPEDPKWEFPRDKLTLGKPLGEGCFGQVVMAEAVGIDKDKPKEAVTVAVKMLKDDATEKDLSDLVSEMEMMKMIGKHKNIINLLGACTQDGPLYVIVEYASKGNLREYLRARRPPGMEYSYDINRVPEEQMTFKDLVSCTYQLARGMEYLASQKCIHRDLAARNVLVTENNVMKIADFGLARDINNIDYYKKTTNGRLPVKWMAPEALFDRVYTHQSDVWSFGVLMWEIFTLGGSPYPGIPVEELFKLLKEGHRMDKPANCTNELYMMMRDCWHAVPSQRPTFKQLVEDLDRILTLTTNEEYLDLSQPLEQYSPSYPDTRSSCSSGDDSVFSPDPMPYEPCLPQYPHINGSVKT", "assay": "Inhibition of FGFR2 (unknown origin) kinase activity"}, "SW480 [4]": {"system": "SW480", "assay": "Anti-migration activity in human SW480 cells assessed as downregulation of FAK phosphorylation by Western blotting analysis", "type": "functional, cell-based"}, "RKO [5]": {"system": "RKO", "assay": "Induction of cell cycle arrest in human RKO cells assessed as accumulation of cells at G2/M phase incubated for 48 hrs by propidium iodide staining based flow cytometry", "type": "functional"}, "HCT-116 [6]": {"system": "HCT-116", "assay": "Antitumor activity against human HCT-116 cells xenografted in BALB/c mouse assessed as downregulation of N-cad expression in tumor at 10 mg/kg,ip administrated for 2 weeks by Western blotting analysis", "type": "functional, organism-based"}, "[7]": {"assay": "Toxicity in ICR mouse assessed as change in heart weight at 60 mg/kg,po administrated for 1 week", "type": "organism-based", "details": "in vivo, 168 h, time 1 weeks"}, "[8]": {"assay": "Hepatotoxicity in ICR mouse assessed as change in serum AST level at 60 mg/kg,po administrated for 1 week", "type": "toxicity, organism-based", "details": "in vivo, 168 h, time 1 weeks"}, "[9]": {"assay": "Toxicity in ICR mouse assessed as change in liver weight at 20 mg/kg,po administrated for 1 week", "type": "organism-based", "details": "in vivo, 168 h, time 1 weeks"}, "SW480 [10]": {"system": "SW480", "assay": "Antiproliferative activity against human SW480 cells assessed as inhibition of colony formation incubated for 2 weeks by crystal violet staining method", "type": "functional, cell-based"}, "HCT-116 [11]": {"system": "HCT-116", "assay": "Antitumor activity against human HCT-116 cells xenografted in BALB/c mouse assessed as downregulation of N-cad expression in tumor at 20 mg/kg,ip administrated for 2 weeks by Western blotting analysis", "type": "functional, organism-based"}, "RKO [12]": {"system": "RKO", "assay": "Anti-migration activity in human RKO cells assessed as loss of actin cytoskeletal fibers at 3 to 12 uM by immunofluorescence assay", "type": "functional, cell-based", "details": "dose 3-12 µM"}, "HCT-116 [13]": {"system": "HCT-116", "assay": "Antitumor activity against human HCT-116 cells xenografted in BALB/c mouse assessed as downregulation of FGFR4 signalling pathway in tumor at 10 mg/kg,ip administrated for 2 weeks by Western blotting analysis", "type": "functional, organism-based"}, "HCT-116 [14]": {"system": "HCT-116", "assay": "Antitumor activity against human HCT-116 cells xenografted in BALB/c mouse assessed as chromatin condensation at 20 mg/kg,ip administrated for 2 weeks by hematoxylin and eosin staining based analysis", "type": "functional, organism-based"}, "HCT-116 [15]": {"system": "HCT-116", "assay": "Antitumor activity against human HCT-116 cells xenografted in BALB/c mouse assessed as change in cell morphology at 10 mg/kg,ip administrated for 2 weeks by hematoxylin and eosin staining based analysis", "type": "functional, organism-based"}, "[16]": {"assay": "Toxicity in BALB/c mouse xenografted with human HCT-116 cells assessed as change in spleen weight at 20 mg/kg,ip administrated for 2 weeks", "type": "organism-based", "details": "in vivo, 336 h"}, "[17]": {"assay": "Toxicity in BALB/c mouse xenografted with human HCT-116 cells assessed as change in liver weight at 10 mg/kg,ip administrated for 2 weeks", "type": "organism-based", "details": "in vivo, 336 h"}, "HCT-116 [18]": {"system": "HCT-116", "assay": "Antitumor activity against human HCT-116 cells xenografted in BALB/c mouse assessed as change in cell morphology at 20 mg/kg,ip administrated for 2 weeks by hematoxylin and eosin staining based analysis", "type": "functional, organism-based"}, "BaF3": {"system": "BaF3", "assay": "Antiproliferative activity against mouse BaF3 transfected with FGFR4 assessed as inhibition of cell growth incubated for 72 hrs by CCK-8 assay", "type": "toxicity, cell-based", "details": "BaF3, 72 h"}, "[19]": {"assay": "Toxicity in ICR mouse assessed as change in kidney weight at 60 mg/kg,po administrated for 1 week", "type": "organism-based", "details": "in vivo, 168 h, time 1 weeks"}, "HCT-116 [20]": {"system": "HCT-116", "assay": "Anti-migration activity in human HCT-116 cells assessed as loss of actin cytoskeletal fibers at 3 to 12 uM by immunofluorescence assay", "type": "functional, cell-based", "details": "dose 3-12 µM"}, "RKO [21]": {"system": "RKO", "assay": "Induction of cell cycle arrest in human RKO cells assessed as downregulation of CDC2 expression at 1.5 to 6 uM by immunoblotting analysis", "type": "functional, cell-based", "details": "dose 1.5-6 µM"}, "RKO [22]": {"system": "RKO", "assay": "cells", "details": "Homo sapiens, 48 h", "description": "Antiproliferative activity against human RKO cells assessed as inhibition of cell growth incubated for 48 hrs by MTT assay"}, "RKO [23]": {"system": "RKO", "assay": "Anti-migration activity in human RKO cells assessed as change in N-cad expression at 3 to 12 uM by Western blotting analysis", "type": "functional, cell-based", "details": "dose 3-12 µM"}, "[24]": {"target": "Fibroblast growth factor receptor 1 (Homo sapiens, UniProt P11362)", "sequence (P11362 whole entry)": "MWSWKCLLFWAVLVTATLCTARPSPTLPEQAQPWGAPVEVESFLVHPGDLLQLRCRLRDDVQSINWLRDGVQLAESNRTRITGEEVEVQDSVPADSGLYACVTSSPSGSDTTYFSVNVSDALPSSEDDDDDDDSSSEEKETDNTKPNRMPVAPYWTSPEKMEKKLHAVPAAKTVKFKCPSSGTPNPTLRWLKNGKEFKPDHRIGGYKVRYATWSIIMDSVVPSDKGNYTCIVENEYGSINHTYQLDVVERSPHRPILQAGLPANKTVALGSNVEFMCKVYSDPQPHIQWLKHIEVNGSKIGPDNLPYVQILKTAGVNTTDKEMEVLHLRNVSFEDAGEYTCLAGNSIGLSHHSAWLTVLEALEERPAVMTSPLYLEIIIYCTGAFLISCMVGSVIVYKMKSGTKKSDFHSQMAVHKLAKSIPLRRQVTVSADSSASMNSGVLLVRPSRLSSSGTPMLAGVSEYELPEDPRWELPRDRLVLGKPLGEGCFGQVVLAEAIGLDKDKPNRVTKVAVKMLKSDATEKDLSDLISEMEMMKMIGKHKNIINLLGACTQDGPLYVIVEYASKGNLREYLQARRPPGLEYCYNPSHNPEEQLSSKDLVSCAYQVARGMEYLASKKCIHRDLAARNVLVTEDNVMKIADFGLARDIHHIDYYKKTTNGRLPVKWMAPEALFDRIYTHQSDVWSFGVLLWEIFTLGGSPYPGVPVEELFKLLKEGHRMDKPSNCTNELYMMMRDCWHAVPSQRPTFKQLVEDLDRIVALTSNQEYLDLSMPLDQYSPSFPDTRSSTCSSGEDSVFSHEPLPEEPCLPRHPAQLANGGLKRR", "assay": "Inhibition of FGFR1 (unknown origin) kinase activity"}, "RKO [25]": {"system": "RKO", "assay": "Induction of cell cycle arrest in human RKO cells assessed as downregulation of cyclin B1 expression at 1.5 to 6 uM by immunoblotting analysis", "type": "functional, cell-based", "details": "dose 1.5-6 µM"}, "RKO [26]": {"system": "RKO", "assay": "Anti-migration activity in human RKO cells assessed as change in FAK distribution at 3 to 12 uM by immunofluorescence assay", "type": "functional, cell-based", "details": "dose 3-12 µM"}, "HCT-116 [27]": {"system": "HCT-116", "assay": "Antitumor activity against human HCT-116 cells xenografted in BALB/c mouse assessed as decrease in CD68 expression in tumor tissue at ip administrated for 2 weeks by immunohistochemical analysis", "type": "functional, organism-based"}, "[28]": {"assay": "Toxicity in BALB/c mouse xenografted with human HCT-116 cells assessed as change in kidney weight at 10 mg/kg,ip administrated for 2 weeks", "type": "organism-based", "details": "in vivo, 336 h"}, "[29]": {"assay": "Toxicity in ICR mouse assessed as change in spleen weight at 20 mg/kg,po administrated for 1 week", "type": "organism-based", "details": "in vivo, 168 h, time 1 weeks"}, "HCT-116 [30]": {"system": "HCT-116", "assay": "Anti-migration activity in human HCT-116 cells assessed as upregulation of E-cad expression by Western blotting analysis", "type": "functional, cell-based"}, "SW480 [31]": {"system": "SW480", "assay": "Antiproliferative activity against human SW480 cells assessed as inhibition of cell growth incubated for 48 hrs by EdU staining method", "type": "functional, cell-based"}, "HCT-116 [32]": {"system": "HCT-116", "assay": "Antitumor activity against human HCT-116 cells xenografted in BALB/c mouse assessed as downregulation of FAK expression in tumor at 10 mg/kg,ip administrated for 2 weeks by Western blotting analysis", "type": "functional, organism-based"}, "[33]": {"assay": "Toxicity in ICR mouse assessed as change in body weight at 60 mg/kg,po administrated for 1 week", "type": "organism-based", "details": "in vivo, 168 h, time 1 weeks"}, "[34]": {"assay": "Hepatotoxicity in ICR mouse assessed as change in serum creatinine level at 60 mg/kg,po administrated for 1 week", "type": "toxicity, organism-based", "details": "in vivo, 168 h, time 1 weeks"}, "[35]": {"assay": "Toxicity in ICR mouse assessed as change in kidney weight at 20 mg/kg,po administrated for 1 week", "type": "organism-based", "details": "in vivo, 168 h, time 1 weeks"}, "HCT-116 [36]": {"system": "HCT-116", "assay": "Antitumor activity against human HCT-116 cells xenografted in BALB/c mouse assessed as decrease in E-Cad expression in tumor tissue at ip administrated for 2 weeks by immunohistochemical analysis", "type": "functional, organism-based"}, "[37]": {"assay": "Toxicity in ICR mouse assessed as histopathological change in kidney at 60 mg/kg,po administrated for 1 week by hematoxylin and eosin staining analysis", "type": "organism-based", "details": "in vivo, 168 h, time 1 weeks"}, "HCT-116 [38]": {"system": "HCT-116", "assay": "Antitumor activity against human HCT-116 cells xenografted in BALB/c mouse assessed as downregulation of FAK phosphorylation in tumor at 10 mg/kg,ip administrated for 2 weeks by Western blotting analysis", "type": "functional, organism-based"}, "HCT-116 [39]": {"system": "HCT-116", "assay": "Antitumor activity against human HCT-116 cells xenografted in BALB/c mouse assessed as downregulation of FAK phosphorylation in tumor at 20 mg/kg,ip administrated for 2 weeks by Western blotting analysis", "type": "functional, organism-based"}, "HCT-116 [40]": {"system": "HCT-116", "assay": "Antitumor activity against human HCT-116 cells xenografted in BALB/c mouse assessed as downregulation of FGFR4 signalling pathway in tumor at 20 mg/kg,ip administrated for 2 weeks by Western blotting analysis", "type": "functional, organism-based"}}, "note": "The source made the active and inactive calls. The calls are words filed in the database; no cut-off is given here."}
{"smiles": "C=CC(=O)NCCCn1c(=O)c(-c2c(Cl)c(OC)cc(OC)c2Cl)cc2cnc(Nc3c(C)cccc3NC(=O)C=C)cc21", "values": [{"measurement": "Drug uptake", "setting": "[1]", "result": "Active"}, {"measurement": "Activity", "setting": "SW480 [2]", "result": "inactive"}, {"measurement": "IC50", "setting": "[3]", "result": 528, "unit": "nM"}, {"measurement": "Activity", "setting": "SW480 [4]", "result": "Dose-Dependent Effect"}, {"measurement": "Activity", "setting": "RKO [5]", "result": "Dose-Dependent Effect"}, {"measurement": "Activity", "setting": "HCT-116 [6]", "result": "Active"}, {"measurement": "Activity", "setting": "[7]", "result": "Non-Toxic"}, {"measurement": "Activity", "setting": "[8]", "result": "Non-Toxic"}, {"measurement": "Activity", "setting": "[9]", "result": "Non-Toxic"}, {"measurement": "Activity", "setting": "SW480 [10]", "result": "Dose-Dependent Effect"}, {"measurement": "Activity", "setting": "HCT-116 [11]", "result": "Active"}, {"measurement": "Activity", "setting": "RKO [12]", "result": "Active"}, {"measurement": "Activity", "setting": "HCT-116 [13]", "result": "Active"}, {"measurement": "Activity", "setting": "HCT-116 [14]", "result": "Active"}, {"measurement": "Activity", "setting": "HCT-116 [15]", "result": "Active"}, {"measurement": "Activity", "setting": "[16]", "result": "Non-Toxic"}, {"measurement": "Activity", "setting": "[17]", "result": "Non-Toxic"}, {"measurement": "Activity", "setting": "HCT-116 [18]", "result": "Active"}, {"measurement": "IC50", "setting": "BaF3", "result": 9.48, "unit": "nM"}, {"measurement": "Activity", "setting": "[19]", "result": "Non-Toxic"}, {"measurement": "Activity", "setting": "HCT-116 [20]", "result": "Active"}, {"measurement": "Activity", "setting": "RKO [21]", "result": "Active"}, {"measurement": "IC50", "setting": "RKO [22]", "result": 11600, "unit": "nM"}, {"measurement": "Activity", "setting": "RKO [23]", "result": "inactive"}, {"measurement": "IC50", "setting": "[24]", "result": 643, "unit": "nM"}, {"measurement": "Activity", "setting": "RKO [25]", "result": "Active"}, {"measurement": "Activity", "setting": "RKO [26]", "result": "Active"}, {"measurement": "Activity", "setting": "HCT-116 [27]", "result": "Dose-Dependent Effect"}, {"measurement": "Activity", "setting": "[28]", "result": "Non-Toxic"}, {"measurement": "Activity", "setting": "[29]", "result": "Non-Toxic"}, {"measurement": "Activity", "setting": "HCT-116 [30]", "result": "Dose-Dependent Effect"}, {"measurement": "Activity", "setting": "SW480 [31]", "result": "Dose-Dependent Effect"}, {"measurement": "Activity", "setting": "HCT-116 [32]", "result": "Active"}, {"measurement": "Activity", "setting": "[33]", "result": "Non-Toxic"}, {"measurement": "Activity", "setting": "[34]", "result": "Non-Toxic"}, {"measurement": "Activity", "setting": "[35]", "result": "Non-Toxic"}, {"measurement": "Activity", "setting": "HCT-116 [36]", "result": "Dose-Dependent Effect"}, {"measurement": "Activity", "setting": "[37]", "result": "Non-Toxic"}, {"measurement": "Activity", "setting": "HCT-116 [38]", "result": "Active"}, {"measurement": "Activity", "setting": "HCT-116 [39]", "result": "Active"}, {"measurement": "Activity", "setting": "HCT-116 [40]", "result": "Active"}]}
